Experimental data published in publication PMC3640414 (Journal of Medicinal Chemistry, 2013).
Values belong to the molecule of their own block, whether it stands above or below them.

Key:
[1] = system: A549 (lung adenocarcinoma) cells; assay: MTS cytotoxicity assay, A549 cells; format: cell-based; details: 100 μM, 72 h
Description: (§1) We also investigated the effects of 8 and 9 in two lung adenocarcinoma cell lines, A549 and H1975. […] H1975 appeared to be somewhat more sensitive to these compounds, a finding confirmed by a clonogenic survival assay (Supporting Information Figure S5).
(§2) Viability of MV4;11, H549, and H1975 cells was monitored by MTS-based CellTiter 96 AQueous nonradioactive cell proliferation assay (Promega, Madison, WI). Viability of U2OS and HeLa cells was monitored by WST-based cell proliferation kit (Roche, Mannheim, Germany). Further details are provided in Supporting Information

[2] = system: H1975 (lung adenocarcinoma) cells; assay: MTS cytotoxicity assay, H1975 cells; format: cell-based; details: 100 μM, 72 h
Description: as §1, §2

BRD4(1) = biological target: T1, BRD4(1) (Homo sapiens, UniProt O60885); assay: AlphaScreen peptide displacement assay (ALPHA), BRD4(1); format: binding
T1 construct: amplify the N-terminal bromodomain region of the protein; made in house

[3] = Stability of 8 in buffer (chiral HPLC); format: physicochemical; details: 2 h in 50 mM HEPES, 0.01% TWEEN, 0.1% BSA
Protocol: vacuum manifold with the inert gas passing through a bed of activated 4 Å molecular sieves and self-indicating silica gel. Cs2CO3, K2CO3 and activated MnO2 were dried in an oven prior to use.
PhMgBr (in THF) was titrated against salicaldehyde phenylhydrazone prior to use, according to the procedure of Love and Jones.9
Reactions with microwave irradiation were carried out in a Biotage Initiator microwave […]
In vacuo refers to the use of a rotary evaporator attached to a diaphragm pump. Brine refers to a saturated aqueous solution of sodium chloride. Petroleum ether refers to the fraction boiling between 30–40 °C unless otherwise stated.
Stability of 8 in buffer: 0.5 mg of (+)-8 in 10 μL DMSO was suspended in buffer (50 mM HEPES, 0.01% TWEEN, 0.1% BSA). […]
Cytotoxcity of 8 in HeLa and U2OS cells: HeLa cells were grown and maintained in DMEM supplemented with L-glutamine and 10% fetal calf serum; U2OS cells were grown and maintained in McCoy’s medium supplemented with 10% fetal calf serum. […] After 24 h or 72 h, 10 μL of WST-1 (Roche Diagnostics) was added to the culture medium and cell viability was determined by colorimetric WST-1 conversion assay. Formazan dye formation was measured at 450 nm using a Molecular devices Spectramax Plus384 microplate reader. Relative WST-1 conversion in treated cells compared with untreated control cells was calculated after […]

[4] = biological target: bromodomain of cAMP response element binding protein (CREB) binding protein (UniProt Q92793 1081-1197); assay: AlphaScreen or HTRF; peptide displacement ALPHA assay; CREBBP bromodomain and biotinylated H3K56Ac peptide, protein and peptide concentration 200 nM (Table 1) or 50 nM (Table 2); small-molecule competitors; duplicate on the same plate; details: both partners purified
Sequence of bromodomain of cAMP response element binding protein (CREB) binding protein (Q92793 1081-1197): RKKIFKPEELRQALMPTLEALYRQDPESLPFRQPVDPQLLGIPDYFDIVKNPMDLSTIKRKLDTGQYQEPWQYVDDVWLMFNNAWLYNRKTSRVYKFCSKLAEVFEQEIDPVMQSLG

Molecule: CC(=O)Oc1cc(-c2c(C)noc2C)cc(C(O)c2ccccc2)c1 (stereo not shown) [Compound 9, 3-(3,5-Dimethylisoxazol-4-yl)-5-(hydroxy(phenyl)methyl)phenyl Acetate]
effect on viability of A549 cells [1]: markedly reduced the viability
effect on viability of H1975 cells [2]: markedly reduced the viability

Molecule: Cc1noc(C)c1-c1cc(O)cc([C@@H](O)c2ccccc2)c1 [(S)-(+)-8, 3-(3,5-Dimethylisoxazol-4-yl)-5-(hydroxy(phenyl)methyl)phenol]
enantiomeric excess after incubation in buffer [3]: > 98 % ee
purity after incubation in buffer [3]: 95%

Next, values leading:

selectivity for BRD4(1) over CREBBP bromodomain (BRD4(1); comparison of ALPHA IC50 values): approximately 6 fold
ligand efficiency (BRD4(1); for BRD4(1)): 0.36
Molecule: CCOc1cc(-c2c(C)noc2C)cc(C(O)c2ccccc2)c1 (stereo not shown) [Compound 12, (3-(3,5-Dimethylisoxazol-4-yl)-5-ethoxyphenyl)(phenyl)methanol]

binding result [4]: binds
B1: H3K56Ac peptide (peptide)
peptide: ALREIRRYQKSTELLIRKLK
modifications: K(Ac) (acetyl-lysine) at the 10th residue (K56 of histone H3 by the peptide's name); K(biotin) at the C-terminal lysine
